According to ChEMBL document CHEMBL1201862, “PubChem BioAssay data set” (2004):
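Briefly, cells in 96-well plates were exposed to five compound concentrations for 48 h, and endpoints were estimated by linear interpolation. Here, GI50 denotes the concentration required for 50% inhibition of growth.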 Active and inactive are the calls of the source. Cut-off read from the data, not from the text of the source: active = GI50 up to about 1.1 µM and inactive = higher.

Assays:
Experiment in all cases: NCI anticancer screen, dose series, 48 h
ACHN = system: ACHN
BT-549 = system: BT-549
CAKI-1 = system: CAKI-1
EKVX = system: EKVX
HCT-15 = system: HCT-15
HOP-62 = system: HOP-62
HT-29 = system: HT-29
Hs-578T = system: Hs-578T
K562 = system: K562
LOX IMVI = system: LOX IMVI
MCF7 = system: MCF7
MDA-MB-231 = system: MDA-MB-231
MDA-N = system: MDA-N
NCI/ADR-RES = system: NCI/ADR-RES
OVCAR-3 = system: OVCAR-3
PC-3 = system: PC-3
SK-MEL-5 = system: SK-MEL-5
SNB-75 = system: SNB-75
HCC 2998 = system: HCC 2998

| Structure (SMILES) | GI50 (ACHN) | GI50 (BT-549) | GI50 (CAKI-1) | GI50 (EKVX) | GI50 (HCT-15) | GI50 (HOP-62) | GI50 (HT-29) | GI50 (Hs-578T) | GI50 (K562) | GI50 (LOX IMVI) | GI50 (MCF7) | GI50 (MDA-MB-231) | GI50 (MDA-N) | GI50 (NCI/ADR-RES) | GI50 (OVCAR-3) | GI50 (PC-3) | GI50 (SK-MEL-5) | GI50 (SNB-75) | GI50 (HCC 2998) |
| --- | --- | --- | --- | --- | --- | --- | --- | --- | --- | --- | --- | --- | --- | --- | --- | --- | --- | --- | --- |
| O=[N+]([O-])c1ccc(S(=O)(=O)Cc2ccccc2)c2nonc12 | 22 µM (inactive) | 18.5 µM (inactive) | 20.1 µM (inactive) | 21.1 µM (inactive) | 22.3 µM | 22.7 µM (inactive) | 18.7 µM (inactive) | 24.3 µM (inactive) | 26.6 µM (inactive) | 19.2 µM (inactive) | 20.2 µM (inactive) | 22.5 µM (inactive) | 19 µM (inactive) | 27 µM (inactive) | 20.8 µM (inactive) | 17.8 µM (inactive) | 18.5 µM (inactive) | 27.6 µM (inactive) | – |
| Nc1nc(O)c2c(n1)NCN(c1ccc(S(N)(=O)=O)cc1)C2 | > 100 µM (inactive) | > 100 µM (inactive) | > 100 µM (inactive) | > 100 µM (inactive) | > 100 µM | 71 µM (inactive) | > 100 µM (inactive) | > 100 µM (inactive) | > 100 µM (inactive) | > 100 µM (inactive) | > 100 µM (inactive) | > 100 µM (inactive) | > 100 µM (inactive) | > 100 µM (inactive) | > 100 µM (inactive) | > 100 µM (inactive) | > 100 µM (inactive) | – | – |
| O=C1Oc2ccccc2N/C1=C/C(=O)c1ccc(Cl)cc1 | > 100 µM (inactive) | > 100 µM (inactive) | > 100 µM (inactive) | > 100 µM (inactive) | > 100 µM | > 100 µM (inactive) | > 100 µM (inactive) | > 100 µM (inactive) | 37.1 µM (inactive) | – | 41.7 µM (inactive) | > 100 µM (inactive) | 66.1 µM (inactive) | 39 µM (inactive) | 37.9 µM (inactive) | 28.1 µM (inactive) | 38.6 µM (inactive) | > 100 µM (inactive) | 63.5 µM (inactive) |
| C=CC[C@@]1(C(=O)OC)[C@H](Sc2ccccc2)C1(C)C | > 100 µM (inactive) | 46 µM (inactive) | 74.8 µM (inactive) | 33.3 µM (inactive) | 31 µM | > 100 µM (inactive) | 24.9 µM (inactive) | 55.6 µM (inactive) | – | – | 25.9 µM (inactive) | 69 µM (inactive) | – | 44.9 µM (inactive) | 44.3 µM (inactive) | 47.3 µM (inactive) | 18.7 µM (inactive) | 21.8 µM (inactive) | 27 µM (inactive) |
| CC(=O)NC(Cc1ccccc1)NC(=O)O (configuration not stated) | > 100 µM (inactive) | > 100 µM (inactive) | > 100 µM (inactive) | > 100 µM (inactive) | > 100 µM | > 100 µM (inactive) | > 100 µM (inactive) | – | > 100 µM (inactive) | > 100 µM (inactive) | > 100 µM (inactive) | > 100 µM (inactive) | > 100 µM (inactive) | > 100 µM (inactive) | > 100 µM (inactive) | > 100 µM (inactive) | > 100 µM (inactive) | > 100 µM (inactive) | > 100 µM (inactive) |
| COc1c2c(cc3c1OCO3)[C@]13C=C[C@H](OC)C[C@H]1N(C2)CC3O (some centres not stated) | > 100 µM (inactive) | > 100 µM (inactive) | > 100 µM (inactive) | > 100 µM (inactive) | > 100 µM | > 100 µM (inactive) | > 100 µM (inactive) | > 100 µM (inactive) | – | > 100 µM (inactive) | > 100 µM (inactive) | > 100 µM (inactive) | > 100 µM (inactive) | > 100 µM (inactive) | > 100 µM (inactive) | > 100 µM (inactive) | > 100 µM (inactive) | – | > 100 µM (inactive) |
| CCOC(=O)CN1C(=O)c2c(NC(=O)C(=O)O)cccc2S1(=O)=O | > 100 µM (inactive) | > 100 µM (inactive) | > 100 µM (inactive) | > 100 µM (inactive) | > 100 µM | > 100 µM (inactive) | > 100 µM (inactive) | > 100 µM (inactive) | > 100 µM (inactive) | > 100 µM (inactive) | > 100 µM (inactive) | > 100 µM (inactive) | > 100 µM (inactive) | > 100 µM (inactive) | – | > 100 µM (inactive) | > 100 µM (inactive) | – | > 100 µM (inactive) |
| COC1(OC)C2C=CC1C([C@](C)(N)CO)C2 (some centres not stated) | > 100 µM (inactive) | > 100 µM (inactive) | > 100 µM (inactive) | > 100 µM (inactive) | – | > 100 µM (inactive) | > 100 µM (inactive) | > 100 µM (inactive) | > 100 µM (inactive) | – | > 100 µM (inactive) | > 100 µM (inactive) | > 100 µM (inactive) | – | > 100 µM (inactive) | > 100 µM (inactive) | > 100 µM (inactive) | > 100 µM (inactive) | > 100 µM (inactive) |
